Assay results reported in patent publication US6727076B2 (priority 1995, dated 2004).
Peptide text beside a SMILES is read from it.

What was measured:
S. typhimurium pyrCΔ73 = assay type: cell-based, Salmonella typhimurium
E. coli MG1655 [1] = assay type: cell-based
[2] = tested on: E. coli strain 14445 (MG1655 himA); assay type: cell-based
[3] = tested on: E. coli strain 14443 (MG1655 (FB426)); assay type: cell-based
[4] = tested on: E. coli strain 6322 (EMG2 (K12, λF+)); assay type: cell-based; note: key: '+' indicates that the organism tested was capable of utilizing the carbon source listed; '−' indicates that the organism tested was not capable of utilizing the carbon source listed; 'w' indicates weak positive reactions
[5] = tested on: E. coli strain 13671 (O157:H? gur+); assay type: cell-based
[6] = tested on: E. coli strain 6321 (MG1655); assay type: cell-based; note: key: '+' indicates that the organism tested was capable of utilizing the carbon source listed; '−' indicates that the organism tested was not capable of utilizing the carbon source listed; 'w' indicates weak positive reactions
[7] = tested on: E. coli strain 14444 (MG1655 xylA); assay type: cell-based
[8] = tested on: E. coli strain 13673 (O157); assay type: cell-based
[9] = tested on: E. coli strain 13675 (O157); assay type: cell-based
[10] = tested on: E. coli strain 11547 (O157:H7); assay type: cell-based
[11] = tested on: E. coli strain 6320 (W3110); assay type: cell-based; note: key: '+' indicates that the organism tested was capable of utilizing the carbon source listed; '−' indicates that the organism tested was not capable of utilizing the carbon source listed; 'w' indicates weak positive reactions
E. coli MG1655 [12] = assay type: cell-based; remark: listed apart in the source
[13] = tested on: E. coli 287 (ATCC #11775); assay type: cell-based
T. harzianum DAOM 190830 = assay type: cell-based, Trichoderma harzianum

Nc1ncnc2c1ncn2[C@@H]1O[C@H](CO)[C@@H](OP(=O)(O)O)[C@H]1O [adenosine 3-monophosphate, adenosine 3′-monophosphate]
growth stimulation by supplement (well color) (S. typhimurium pyrCΔ73): turned weakly purple | suitability as phosphorus source (growth, purple color) (E. coli MG1655 [1]): positive

O=C1O[C@H]([C@@H](O)CO)[C@@H](O)[C@@H]1O [L-galactonic acid γ-lactone]
carbon source utilization [2]: + | carbon source utilization [3]: + | carbon source utilization [4]: + | carbon source utilization [5]: + | carbon source utilization [6]: + | carbon source utilization [7]: + | carbon source utilization [8]: + | carbon source utilization [9]: + | carbon source utilization [10]: + | carbon source utilization [11]: +

Nc1nc2nc[nH]c2c(=O)[nH]1 [guanine]
growth stimulation by supplement (well color) (S. typhimurium pyrCΔ73): turned weakly purple

Tween-20
carbon source utilization [2]: − | carbon source utilization [3]: − | carbon source utilization [7]: − | carbon source utilization [11]: −

Nc1nc2c(ncn2[C@@H]2O[C@H](COP(=O)(O)O)[C@@H](O)[C@H]2O)c(=O)[nH]1 [guanosine 5′-monophosphate]
growth stimulation by supplement (well color) (S. typhimurium pyrCΔ73): turned weakly purple | suitability as phosphorus source (growth, purple color) (E. coli MG1655 [1]): positive

O=C[C@H](O)[C@@H](O)[C@H](O)CO [D-xylose]
carbon source utilization, in words [3]: positive | carbon source utilization, in words [7]: negative

O=c1ccn([C@H]2C[C@H](O)[C@@H](CO)O2)c(=O)[nH]1 [2-deoxyuridine]
growth stimulation by supplement (well color) (S. typhimurium pyrCΔ73): turned purple

O=c1cc[nH]c(=O)[nH]1 [uracil]
growth stimulation by supplement (well color) (S. typhimurium pyrCΔ73): turned purple | suitability as nitrogen source (growth, purple color) (E. coli MG1655 [12]): not suitable

Nc1nc2c(ncn2[C@H]2C[C@H](O)[C@@H](CO)O2)c(=O)[nH]1 [2′deoxyguanosine]
growth stimulation by supplement (well color) (S. typhimurium pyrCΔ73): turned weakly purple

Nc1ccn([C@H]2C[C@H](O)[C@@H](CO)O2)c(=O)n1 [2-deoxycytidine]
growth stimulation by supplement (well color) (S. typhimurium pyrCΔ73): turned purple

CCC(=O)C(=O)O [α-ketobutyric acid]
carbon source utilization result [13]: positive | carbon source utilization, in words [2]: negative

Nc1ccn([C@@H]2O[C@H](CO)[C@@H](OP(=O)(O)O)[C@H]2O)c(=O)n1 [cytidine 3′-monophosphate]
growth stimulation by supplement (well color) (S. typhimurium pyrCΔ73): turned purple | suitability as phosphorus source (growth, purple color) (E. coli MG1655 [1]): positive

Nc1ncnc2c1ncn2[C@H]1C[C@H](O)[C@@H](CO)O1 [2′-deoxy-adenosine]
growth stimulation by supplement (well color) (S. typhimurium pyrCΔ73): turned weakly purple

OC[C@H]1O[C@@H](n2cnc3c(O)ncnc32)[C@H](O)[C@@H]1O [Inosine]
growth stimulation by supplement (well color) (S. typhimurium pyrCΔ73): turned weakly purple | carbon source utilization result [13]: positive | carbon source utilization result (T. harzianum DAOM 190830): positive | suitability as nitrogen source (growth, purple color) (E. coli MG1655 [12]): not suitable

OC[C@H]1O[C@H](O[C@H]2[C@H](O)[C@@H](O)[C@H](O)O[C@@H]2CO)[C@H](O)[C@@H](O)[C@@H]1O [Maltose]
carbon source utilization result [13]: positive | carbon source utilization, in words [2]: negative | carbon source utilization, in words [7]: negative

Nc1ccn([C@@H]2O[C@H](CO)[C@@H](O)[C@H]2OP(=O)(O)O)c(=O)n1 [cytidine 2′-monophosphate]
growth stimulation by supplement (well color) (S. typhimurium pyrCΔ73): turned purple | suitability as phosphorus source (growth, purple color) (E. coli MG1655 [1]): not suitable

C[C@H](N)C(=O)NCC(=O)O [L-alanyl-glycine] (H-Ala-Gly-OH)
carbon source utilization result [13]: positive | carbon source utilization result (T. harzianum DAOM 190830): positive | suitability as nitrogen source (growth, purple color) (E. coli MG1655 [12]): positive

O=C(O)[C@@H](O)[C@@H](O)[C@H](O)[C@@H](O)C(=O)O [D-saccharic acid]
carbon source utilization, in words [5]: negative | carbon source utilization, in words [8]: negative | carbon source utilization, in words [9]: negative | carbon source utilization, in words [10]: negative

O=c1ccn([C@@H]2O[C@H](CO)[C@@H](OP(=O)(O)O)[C@H]2O)c(=O)[nH]1 [uridine 3′-monophosphate]
growth stimulation by supplement (well color) (S. typhimurium pyrCΔ73): turned purple | suitability as phosphorus source (growth, purple color) (E. coli MG1655 [1]): positive

Nc1ncnc2c1ncn2[C@@H]1O[C@H](COP(=O)(O)O)[C@@H](O)[C@H]1O [adenosine 5′-monophosphate]
growth stimulation by supplement (well color) (S. typhimurium pyrCΔ73): turned weakly purple | suitability as phosphorus source (growth, purple color) (E. coli MG1655 [1]): not suitable

O=c1ccn([C@@H]2O[C@H](COP(=O)(O)O)[C@@H](O)[C@H]2O)c(=O)[nH]1 [uridine 5′-monophosphate]
growth stimulation by supplement (well color) (S. typhimurium pyrCΔ73): turned purple | suitability as phosphorus source (growth, purple color) (E. coli MG1655 [1]): positive

O=C[C@@H](O)[C@@H](O)[C@H](O)[C@H](O)CO [D-mannose]
carbon source utilization result [13]: positive | carbon source utilization result (T. harzianum DAOM 190830): positive

N[C@@H](Cc1ccccc1)C(=O)O [L-phenylalanine]
carbon source utilization result [13]: positive/negative | carbon source utilization result (T. harzianum DAOM 190830): positive | suitability as nitrogen source (growth, purple color) (E. coli MG1655 [12]): not suitable

NCC(=O)N[C@@H](CCC(=O)O)C(=O)O [Glycyl-L-glutamic acid] (H-Gly-Glu-OH)
carbon source utilization result [13]: positive | carbon source utilization result (T. harzianum DAOM 190830): positive | suitability as nitrogen source (growth, purple color) (E. coli MG1655 [12]): positive

CC(O)CC(=O)O (stereo not drawn) [β-hydroxybutyric acid]
carbon source utilization result [13]: negative | carbon source utilization result (T. harzianum DAOM 190830): positive

Nc1ccn([C@@H]2O[C@H](CO)[C@@H](O)[C@H]2O)c(=O)n1 [cytidine]
growth stimulation by supplement (well color) (S. typhimurium pyrCΔ73): turned purple

Nc1ccn([C@@H]2O[C@H](COP(=O)(O)O)[C@@H](O)[C@H]2O)c(=O)n1 [cytidine 5′-monophosphate]
growth stimulation by supplement (well color) (S. typhimurium pyrCΔ73): turned purple | suitability as phosphorus source (growth, purple color) (E. coli MG1655 [1]): positive

Nc1cc[nH]c(=O)n1 [cytosine]
growth stimulation by supplement (well color) (S. typhimurium pyrCΔ73): turned purple | suitability as nitrogen source (growth, purple color) (E. coli MG1655 [12]): not suitable

Tween-80
carbon source utilization result [13]: positive | carbon source utilization [2]: − | carbon source utilization [3]: − | carbon source utilization [6]: + | carbon source utilization [7]: − | carbon source utilization result (T. harzianum DAOM 190830): positive

O=C(CO)[C@@H](O)[C@H](O)[C@H](O)CO [D-fructose]
carbon source utilization result [13]: positive | carbon source utilization result (T. harzianum DAOM 190830): positive

O=c1ccn([C@@H]2O[C@H](CO)[C@@H](O)[C@H]2O)c(=O)[nH]1 [Uridine]
growth stimulation by supplement (well color) (S. typhimurium pyrCΔ73): turned purple | carbon source utilization result [13]: positive | suitability as nitrogen source (growth, purple color) (E. coli MG1655 [12]): not suitable

O=C(O)CC(O)(CC(=O)O)C(=O)O [Citric acid]
carbon source utilization result [13]: negative | carbon source utilization result (T. harzianum DAOM 190830): positive

CCC(=O)O [Propionic acid]
carbon source utilization result [13]: positive | carbon source utilization, in words [2]: negative

Nc1nc2c(ncn2[C@@H]2O[C@H](CO)[C@@H](O)[C@H]2OP(=O)(O)O)c(=O)[nH]1 [guanosine 2′-monophosphate]
growth stimulation by supplement (well color) (S. typhimurium pyrCΔ73): turned weakly purple | suitability as phosphorus source (growth, purple color) (E. coli MG1655 [1]): positive

O=C(O)CCC(=O)O [Succinic acid]
carbon source utilization result [13]: positive | carbon source utilization result (T. harzianum DAOM 190830): positive

O=C(O)C[C@@H](O)C(=O)O [D-malic acid]
carbon source utilization [2]: + | carbon source utilization [3]: + | carbon source utilization [4]: + | carbon source utilization [5]: + | carbon source utilization [6]: + | carbon source utilization [7]: + | carbon source utilization [8]: + | carbon source utilization [10]: + | carbon source utilization [11]: +

O=C(O)CO [Glycolic acid]
carbon source utilization, in words [2]: negative

O=C1CC[C@@H](C(=O)O)N1 [L-pyroglutamic acid]
carbon source utilization result [13]: positive/negative | carbon source utilization result (T. harzianum DAOM 190830): positive | suitability as nitrogen source (growth, purple color) (E. coli MG1655 [12]): not suitable

CCC(O)C(=O)O (stereo not drawn) [α-hydroxy butyric acid]
carbon source utilization, in words [2]: negative

Nc1ncnc2c1ncn2[C@@H]1O[C@H](CO)[C@@H](O)[C@H]1OP(=O)(O)O [adenosine-2′-monophosphate]
growth stimulation by supplement (well color) (S. typhimurium pyrCΔ73): turned weakly purple | suitability as phosphorus source (growth, purple color) (E. coli MG1655 [1]): positive

CC(=O)N[C@H]1C(O)O[C@H](CO)[C@@H](O)[C@@H]1O (stereo partly drawn) [N-acetyl-D-glucosamine]
carbon source utilization result [13]: positive | carbon source utilization result (T. harzianum DAOM 190830): positive | suitability as nitrogen source (growth, purple color) (E. coli MG1655 [12]): positive

OCC(O)CO [Glycerol]
carbon source utilization result [13]: positive | carbon source utilization result (T. harzianum DAOM 190830): positive

OC[C@@H](O)[C@@H](O)[C@H](O)[C@@H](O)CO [D-sorbitol]
carbon source utilization result [13]: positive | carbon source utilization, in words [5]: negative | carbon source utilization, in words [8]: negative | carbon source utilization result (T. harzianum DAOM 190830): positive | carbon source utilization, in words [9]: negative | carbon source utilization, in words [10]: negative

O=C(O)CC(Br)C(=O)O (centres unmarked) [Bromo succinic acid]
carbon source utilization result [13]: positive | carbon source utilization result (T. harzianum DAOM 190830): positive
